# Data published in publication PMC12381739, “Druglike Molecular Degraders of the Oncogenic RNA-Binding Protein HuR” (JACS Au, 2025).
# Tests used:
# MCF-7 cells = assay: Caspase-Glo 3/7 apoptosis assay; assay type: cell-based, human; settings: MCF-7, 10 nM
# Description: To elucidate the decrease in cell viability observed, we evaluated the potential increase in apoptosis using the […] Caspase-Glo 3/7 assay system. Upon cell lysis, active caspases cleave a luminogenic substrate, releasing aminoluciferin, which is subsequently converted to light by luciferase. The intensity of the signal directly correlates with the levels of apoptosis. […] This destabilization reduces the levels of proteins essential for cancer cell survival, resulting in cumulative cellular stress, diminished proliferation, and enhanced cytotoxicity. […] This enhanced effect is likely due to the catalytic nature of the molecular glue degraders, offering promising potential for cancer treatment.
# MCF-7 cells were seeded in 96-well plates to 80% confluency and treated with synthesized compounds at four concentrations (1 nM–1 μM) for 24 and 48 h. Cell apoptosis was analyzed using the Caspase-Glo 3/7 Assay System (Promega, G8090). Each sample was incubated with Caspase-Glo 3/7 solution for 1 h, followed by luminescence measurement. Luminescence was measured […] using the Synergy H1 Hybrid Multi-Mode Microplate Reader (Biotek, Agilent). Cell apoptosis was calculated as the percent increase in luminescence of treated cells compared to untreated controls. All experiments were performed in triplicate.
# [1] = test system: MCF-7 and MDA-MB-231 cells; assay: Cell counting-proliferation assay; assay type: cell-based, human; settings: compared to Binders 1 and 2, at 24 and 48 h
# Protocol: MCF-7 and MDA-MB-231 cells were seeded in 96-well plates to 80% confluency and treated with synthesized compounds at eight concentrations (0.1 nM–100 μM) for 24 and 48 h. Cell proliferation was assessed using the Resazurin Assay Kit (Abcam, ab228554), where each sample was incubated with 1× WST-8/CCK8 solution for 1 h. After incubation, fluorescence was measured by absorbance at 460 nm using the Synergy H1 Hybrid Multi-Mode Microplate Reader (Biotek, Agilent). Cell proliferation was calculated as the percent decrease in fluorescence of treated cells compared to untreated controls. All experiments were performed in triplicate.
# HuR [2] = target: T1, HuR (Homo sapiens, UniProt Q15717); assay: Fluorescence binding assay using intrinsic fluorescence of the PROTAC with titrated HuR protein; settings: fixed 100 μM degrader, increasing HuR; fluorescence rises over 0.0075–0.1 nM and 0.125–1 nM
# T1 sequence (Q15717 whole entry): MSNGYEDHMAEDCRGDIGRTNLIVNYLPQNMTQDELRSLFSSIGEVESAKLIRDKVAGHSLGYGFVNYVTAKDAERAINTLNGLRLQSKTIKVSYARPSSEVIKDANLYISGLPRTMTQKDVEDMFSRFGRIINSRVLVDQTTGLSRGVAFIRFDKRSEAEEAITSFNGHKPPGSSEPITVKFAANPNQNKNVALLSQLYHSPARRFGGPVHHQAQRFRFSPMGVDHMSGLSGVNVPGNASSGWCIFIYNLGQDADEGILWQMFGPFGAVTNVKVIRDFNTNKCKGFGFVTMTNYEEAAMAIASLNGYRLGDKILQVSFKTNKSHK
# Protocol: To elucidate the mechanism underlying the observed biphasic degradation pattern, we generated a docking model using the Schrödinger software. […] This preferential binding correlates with the initial phase of degradation observed at low degrader concentrations (5 nM to 100 nM; Figures B and B and ). At higher degrader concentrations (e.g., 10 μM), different complex engagement may occur at the P2 RNA-binding pocket. […] Unlike the previous displacement assay–which monitored competition between labeled RNA and HuR–we utilized the intrinsic fluorescence of the PROTAC derivative at a fixed concentration while titrating HuR protein. This approach allowed us to detect fluorescence changes corresponding to HuR binding events. […] Fluorescence increased over two separate concentration ranges–0.0075–0.1 nM and 0.125–1 nM–with a clear dip between 0.1 and 0.125 nM. […]
# As part of the dual-binding evaluation, Pro-HuR3 fluorescence was first characterized across a concentration range (1–100 μM; 1, 2, 5, 10, 20, 50, and 100 μM). The assays were performed in PBS buffer (20 mM sodium phosphate, 150 mM NaCl, 1 mM dithiothreitol, 0.05% PLURONIC-127, 15% DMSO) at 293 K. Fluorescence spectra were recorded using the Synergy H1 Hybrid Multi-Mode Microplate Reader (Biotek, Agilent), with excitation and emission scans identifying optimal wavelengths of 405–415 nm (excitation) and 520 nm (emission), respectively. […]
# HuR [3] = target: T1, HuR; assay: HuR protein expression by western blot in MDA-MB-231 cells; assay type: cell-based; design: endogenous in cells; settings: 48 h
# Protocol: Total protein was extracted using RIPA cell lysis buffer (BioPrep) containing a protease inhibitor, and protein concentration was measured using the BCA protein assay (Sigma-Aldrich) according to the manufacturer’s protocol. Approximately 30 μg of total protein were resolved on a 12% SDS-acrylamide gel and transferred to a PVDF membrane (Immobilon FL transfer membrane; Merck). The membrane was washed with 1× Tris-buffered saline (TBS) containing 0.1% (v/v) Tween-20 (TBST; Tris-base, pH 7.6, NaCl, and Tween-20) and blocked in 1× TBST containing 5% (w/v) BSA for 2 h at room temperature. The membrane was then incubated overnight at 4 °C with primary antibodies: a 1:1000 dilution of rabbit anti-ELAVL1/HuR (Cell Signaling Technology, #12582), a 1:1000 dilution of mouse anti-Bcl2 (Cell Signaling Technology, #15071), or a 1:10,000 dilution of rabbit anti-Vinculin (Cell Signaling Technology, #13901) in 1× TBST containing 5% (w/v) BSA. Following primary antibody incubation, the membrane was washed with 1× TBST and incubated with a 1:10,000 dilution of the appropriate horseradish-peroxidase-conjugated secondary antibody (antirabbit IgG: Cell Signaling, #7074 or antimouse IgG: Cell Signaling, #7076) at room temperature for 2 h. […] The fold change in the expression of the target proteins (HuR or Bcl2) was calculated by normalizing the band intensity to the Vinculin band intensity using ImageJ.
# Bcl2 and FOXQ1 mRNA = assay: mRNA RT-qPCR of Bcl2 and FOXQ1 in MCF-7 cells; assay type: cell-based, human
# Protocol: MCF-7 cells were seeded into 12-well plates (∼150,000 cells per well) at 60–70% confluency incubated for 12 h. The cells were then treated with different synthesized compounds at the indicated concentrations or with vehicle control for 24 and 48 h. After treatment, total RNA was extracted using the QuickRNA Miniprep Kit (Zymo Research) according to the manufacturer’s protocol, including DNase I treatment. Reverse transcription was performed on 1 μg of total RNA using the qScript cDNA Synthesis Kit (Quantabio) following the manufacturer’s instructions. Approximately 30 ng of cDNA were used for each qPCR reaction, which was carried out using the Luna Universal qPCR Master Mix (New England BioLabs, cat# E3010G) on a CFX Opus 384 Real-Time PCR System. Relative expression levels of Bcl-2 and FOXQ1 were calculated by normalizing to GAPDH expression using the ΔΔCt method.
# HuR [4] = target: T1, HuR; assay: Proteasome inhibitor (bortezomib, MG132) mechanistic validation of HuR degradation in MCF-7 cells; assay type: cell-based; design: endogenous in cells; host or cells: MCF-7; settings: MCF-7, with bortezomib or MG132
# Protocol: MCF-7 cells were seeded in 6-well plates at approximately 60% confluency and incubated for 12 h. The cells were then treated with 1 μM of the proteasome inhibitors Bortezomib (Thermo Fisher Scientific, CAS: 179324-69-7) and MG132 (Aaron Chemicals, CAS: 1211877-36-9). After treatment, the synthesized compounds were added at a concentration of 10 μM, and the cells were incubated for 5 h.
structure (smiles),measurement,setting,value
O=C1CCC(N2C(=O)c3cccc(NCc4cn(-c5ccc6sc(C(=O)O)cc6c5)nn4)c3C2=O)C(=O)N1 (centres unmarked) [PRO-HuR3],apoptosis (caspase 3/7),MCF-7 cells,significant increase in apoptosis
same,cell proliferation,[1],significant decrease in cell proliferation
same,binding response on HuR titration (intrinsic fluorescence),HuR [2],two distinct IC50 values
same,reduction of HuR expression,"HuR [3]; MDA-MB-231, 10 nM",38%
same,reduction of HuR expression,"HuR [3]; MDA-MB-231, 10 μM",~75%
same,Bcl2 mRNA expression relative to lower concentrations,"Bcl2 and FOXQ1 mRNA; MCF-7, 1 μM",increase in Bcl2 expression
same,Bcl2 and FOXQ1 mRNA expression,"Bcl2 and FOXQ1 mRNA; MCF-7, concentrations ranging from 1 nM to 100 nM",decrease in the expression of both genes
same,degrader activity under 26S proteasome inhibition,HuR [4],completely impaired
